# Measurements taken from patent publication US10597398B2, “Suppression and regeneration promoting effect of low molecular weight compound on cancer and fibrosis” (NATIONAL UNIVERSITY CORPORATION TOTTORI UNIVERSITY, priority 2015, dated 2020).
# Columns and labels:
# Format in all cases: cell-based, human
# LX-2 cells [1] = test: Anti-fibrosis effect, summary statements on Example 3 (marker not specified); conditions: concentration even lower than that of IC-2
# From the text: α-Smooth muscle actin (α-SMA), a fibrosis marker, was used as an indicator, and RNA was collected from LX-2 cells treated with each low-molecular-weight compound. Next, an inhibitory effect on fibrosis was examined by real-time RT-PCR.
# In addition, instead of α-SMA, another fibrosis marker collagen, type I, alpha 1 (COL1A1) was used as an indicator, and substantially the same protocol was repeated. The concentrations of each compound used were as described in FIG. 34. Each control sample used was 0.1% DMSO, a solvent for each compound. Here, COL1A1 primers used were 5′-CCT CCA GGG CTC CAA CGA G-3′ and 5′-TCAATCACTGTCTTGCCCCA-3′. The annealing was performed at 58° C. for 5 sec. The measurement results were obtained by dividing the calculated value for the COL1A1 gene by the calculated value for the GAPDH gene.
# HuH-7 cells = test: Growth inhibitory effect on cancer cells (WST assay), Example 2.3; conditions: for IC50: HuH-7 cells, WST assay, concentrations 0-50 μM, control 0.1% DMSO; for IC50 compared with IC-2: comparison with IC-2
# Protocol: HuH-7 cells, a human liver cancer cell line, were cultured on 10-cm cell culture dishes (TPP Techno Plastic Products AG, Trasadingen, Switzerland) by using DMEM under conditions at 5% CO2, 37° C., and 100% humidity. When the cells were 70 to 90% confluent, 200 μL of 0.25% Trypsin/1 mM EDTA solution, which had been prepared by diluting the stock solution 10-fold with PBS (−), was added to detach the cells. Then, the cells were centrifuged at 1000 rpm for 3 min at room temperature. The cells recovered were subcultured at a 1:4 split ratio.
# First, 70 to 90% confluent HuH-7 cells were harvested and seeded (n=3) at 5×10^3 cells/well of a 96-well plate (TPP). After 24 h, each compound was added to the cells and the mixture was cultured at 37° C. The concentrations of each compound were 0, 10, 20, 30, 40, and 50 μM. For IC-2-506-1, however, the concentrations used were 0, 10, 20, 25, 30, 40, and 50 μM. Each control sample (0 μM) used was 0.1% DMSO, a solvent for each compound.
# Next, 0, 24, 48, and 96 h after the compound treatment, 100 μIL of DMEM-diluted 10% Cell Counting Kit-8 (DOJINDO LABORATORIES, Kumamoto) was added. The mixture was incubated at 37° C. for 60 min and its absorbance (at a measurement wavelength of 450 nm/control wavelength of 600 nm) was measured by using a Sunrise Rainbow RC (Tecan Group Ltd., Mannedorf, Switzerland). Absorbance for the cells alone was calculated by subtracting, from the reading obtained, absorbance for 10% Cell Counting Kit-8 alone.
# The “*” in figures indicates a significant difference of p<0.05 between 0.1% DMSO and each compound; and the “**” indicates a significant difference of p<0.01 (the same applies to all the figures in Examples).
# [2] = tested on: cancer stem cells (CD44) in HuH-7 cells; test: Inhibitory effect on cancer stem cells (FCM analysis of CD44), Example 2.4; conditions: for inhibitory effect on cancer stem cells compared with IC-2: comparison with IC-2
# Protocol: CD44, a cancer stem cell marker, was used as an indicator to examine an inhibitory effect of each compound on cancer stem cells. The concentrations of the respective compounds were as described in FIG. 32. Each control sample used was 0.1% DMSO, a solvent for each compound. In the figures, the “‡” indicates a significant difference of p<0.01.
# First, 70 to 90% confluent HuH-7 cells were harvested and seeded at 1.5×10^6 cells per 10-cm cell culture dish. After 24 h, each compound was added to the cells and the mixture was cultured at 37° C. At 48 h after the compound treatment, the cells were harvested from each culture dish. The cells were centrifuged at 1000 rpm and at 4° C. for 3 min to remove a supernatant and were then washed twice with 1 mL of 0.5% FBS/2 mM EDTA/PBS. Next, the cells were suspended in 500 μL of 5% BSA/0.5% FBS/2 mM EDTA/PBS for blocking at 4° C. for 15 min. Then, 5 μL of a mouse anti-human CD44 monoclonal antibody (156-3C11, Cell Signaling Technology Inc., Danvers, Mass.) was added to 500 μL of the cell suspension. The mixture was resuspended and subjected to a primary antibody reaction in a dark room at 4° C. for 30 min. After that, the cells were washed 3 times with 1 mL of 0.5% FBS/2 mM EDTA/PBS. Subsequently, 100 μL of Alexa Fluor 488-labeled IgG (H+L) (ab150113, Abcam Ltd., Cambridge, UK), which had been diluted 200-fold with 5% BSA/0.5% FBS/2 mM EDTA/PBS, was added and the cells were suspended. Then, a secondary antibody reaction was carried out in a dark room at 4° C. for 30 min. After that, the cells were washed 3 times with 1 mL of 0.5% FBS/2 mM EDTA/PBS. Thereafter, the cells were suspended in 500 μL of 0.5% FBS/2 mM EDTA/PBS and were made to pass through a 40 μm-mesh column (Becton, Dickinson and Company, Franklin Lakes, N.J.). A Beckman Coulter-Moflo XDP (Beckman Coulter Inc., Fullerton, Calif.) was used for analysis. Following the analysis, further analysis was conducted by adding 2 μL of 0.25 mg/mL Propidium Iodide (PI). The same experiment was repeated four times.
# mesenchymal stem cell = test: Hepatocyte differentiation-inducing effect, summary statements on Example 4 (readout not specified); conditions: low concentration
# From the text: Albumin, a hepatocyte marker, was used as an indicator, and RNA was collected from cells treated with each compound. Next, a hepatocyte differentiation-inducing effect was examined by real-time RT-PCR. The concentrations of the respective compounds were as described in FIG. 35. Each control sample used was 0.1% DMSO, a solvent for each compound.
# By using urea synthesis, a hepatocyte function, as an indicator, a hepatocyte differentiation-inducing effect of each compound was investigated.
# The cells treated with each compound were subjected to immunofluorescence analysis of albumin, a hepatocyte marker, to investigate a hepatocyte differentiation-inducing effect. The concentrations of the respective compounds were as described in FIG. 37. Each control sample used was 0.1% DMSO, a solvent for each compound.
# By using glycogen synthesis, a hepatocyte function, as an indicator, a hepatocyte differentiation-inducing effect of each compound was investigated.
# LX-2 cells [3] = test: Growth inhibitory effect on LX-2 cells; conditions: 100 μM
# Wnt/β-catenin signaling [4] = test: Inhibitory effect on Wnt/β-catenin signaling in liver cancer cells (HuH7-TCF4 luciferase); conditions: concentration equal to or lower than that of IC-2
# Protocol: A pTCF4-CMVpro-GL4.20 plasmid vector, which had been constructed by inserting 3 copies of TCF4 motifs (CCT TTG ATC) upstream of a CMV promoter into a multiple cloning site of pGL4.20 (Promega Corp., Fitchburg, Wis.), was linearized and stably transfected into the HuH-7 cells. The resulting stable cells (HuH7-TCF4 cells) and HuH-7 cells were likewise cultured.
# While each compound was added at concentrations where the growth of HuH-7 cells was reduced to about 50% or less, Wnt/β-catenin signaling activity was measured. The concentrations of the respective compounds were as described in FIG. 40. Control samples used were 0.1% DMSO, a solvent for each compound, and 0.5 μM 5-FU.
# First, 70 to 90% confluent HuH7-TCF4 cells were harvested and seeded (n=3) at 5.0×10^4 cells/well of a 24-well plate (TPP). After 24 h, each compound was added to the cells and the mixture was cultured at 37° C.
# At 48 h after the compound treatment, the culture medium was discarded, and 100 μL of room temperature 5×Passive Lysis Buffer (PLB) (Promega Corp., Fitchburg, Wis.), which had been diluted 5-fold with MilliQ water, was added to each well. Next, the plate was shaken at room temperature for 15 min and was then frozen at −30° C. overnight. A Luciferase Assay Substrate was diluted with 10 mL of room temperature Luciferase Assay Buffer II to prepare Luciferase Assay Reagent II (LARII) (Promega). The frozen PLB lysate samples were thawed and permeabilized for 15 min. Then, 10 μL aliquots were added to wells of a 96-well white plate (Corning Inc., Corning, N.Y.). While 50 μL aliquots of LARII were each added to each well, luminescence was quantified by using a 1420 multi-label counter ARVO MX (PerkinElmer Singapore Pte Ltd., Singapore) to determine firefly luciferase activity. Note that a significant difference was evaluated by using (two-tailed) Student's t-test. The “*” in figures indicates a significant difference of p<0.05 between 0.1% DMSO and each compound; and the “**” indicates a significant difference of p<0.01 (the same applies to all the figures in Examples).
# Wnt/β-catenin signaling [5] = test: Inhibitory effect on Wnt/β-catenin signaling in mesenchymal stem cells (E7-TCF4 luciferase)
# Protocol: A pTCF4-CMVpro-GL4.20 plasmid vector, having 3 copies of TCF4 motifs (CCT TTG ATC) upstream of aCMV promoter in a multiple cloning site of pGL4.20 (Promega Corp., Fitchburg, Wis.), was linearized and stably transfected into UE7T-13 cells to prepare E7-TCF4 cells. Also, a pCMVpro-GL4.20 plasmid vector, having a CMV promoter in a multiple cloning site of pGL4.20, was linearized and stably transfected into UE7T-13 cells. The resulting stable cells (E7-CMV cells) were cultured, like UE7T-13 cells, in 10% FBS/DMEM containing 0.25 μg/mL puromycin.
# UE7T-13 cells were used to measure Wnt/β-catenin signaling activity. The concentrations of the respective compounds were as described in FIG. 42. Each control sample used was 0.1% DMSO, a solvent for each compound.
# First, 70 to 90% confluent E7-TCF4 cells and E7-CMV cells were harvested and seeded (n=3) at 1.6758×10^4 cells/well of a 24-well plate (9.0×10^3 cells/cm^2). One day after that, each compound was added to the cells and the mixture was cultured at 37° C. Day 4 after the compound addition, the culture medium was changed.
# At day 1, 4, or 8 after the compound treatment, the culture medium was discarded, and 100 μL of room temperature 5×Passive Lysis Buffer (PLB), which had been diluted 5-fold with MilliQ water, was added to each well. Next, the plate was shaken at room temperature for 15 min and was then frozen at −30° C. overnight. A Luciferase Assay Substrate was diluted with 10 mL of room temperature Luciferase Assay Buffer II to prepare Luciferase Assay Reagent II (LARII). The frozen PLB lysate samples were thawed and permeabilized for 15 min. Then, 10 μL aliquots were added to wells of a 96-well white plate. While 50 μL aliquots of LARII were each added to each well, luminescence was quantified by using a 1420 multi-label counter ARVO MX to determine firefly luciferase activity.
SMILES,"anti-fibrosis effect compared with IC-2, lower concentration (LX-2 cells [1])",IC50 (HuH-7 cells),IC50 compared with IC-2 (HuH-7 cells),hepatocyte-inducing effect at low concentration (mesenchymal stem cell),growth inhibitory effect on LX-2 cells (LX-2 cells [3]),inhibitory effect on cancer stem cells compared with IC-2 [2],inhibitory effect on Wnt/β-catenin signaling pathway in liver cancer cells compared with IC-2 (Wnt/β-catenin signaling [4]),other results
CC(C)(C)[Si](C)(C)Oc1ccc(CNC(=O)N2CCC(=O)N3C(Cc4ccccc4)C(=O)N(Cc4cccc5ccccc45)CC23)cc1 (stereo not shown) [IC-2-OTBS],more potent anti-fibrosis effect,11.8 µM,lower IC50 than IC-2,exerted a hepatocyte-inducing effect,–,–,–,anti-tumor effect compared with IC-2 (HuH-7 cells; at a concentration lower than that of IC-2): more potent anti-tumor effect; inhibitory effect on cancer stem cells at a concentration lower than that of IC-2 ([2]; concentration even lower than that of IC-2): exerted an inhibitory effect on cancer stem cells
NC(=O)N1CCC(=O)N2C(Cc3ccccc3)C(=O)N(Cc3cccc4ccccc34)CC12 (stereo not shown) [Compound 9b-CONH2],–,–,–,–,Neither 100 μM of 9b nor 9b-CONH2 exhibited a growth inhibitory effect,–,–,–
O=C1C(Cc2ccccc2)N2C(=O)CCN(C(=O)NCc3ccc(F)cc3)C2CN1Cc1cccc2ccccc12 (stereo not shown) [IC-2-F],more potent anti-fibrosis effect,22.2 µM,lower IC50 than IC-2,exerted a hepatocyte-inducing effect,–,more potent inhibitory effect on cancer stem cells than IC-2,more potent inhibitory effect,–
O=C1C(Cc2ccccc2)N2C(=O)CCN(C(=O)NCc3ccc([N+](=O)[O-])cc3)C2CN1Cc1cccc2ccccc12 (stereo not shown) [IC-2-NO2],–,28.1 µM,–,–,–,more potent inhibitory effect on cancer stem cells than IC-2,more potent inhibitory effect,inhibitory effect on Wnt/β-catenin signaling pathway in mesenchymal stem cells compared with IC-2 (Wnt/β-catenin signaling [5]; concentration equal to or lower than that of IC-2): more potent inhibitory effect
O=C1C(Cc2ccccc2)N2C(=O)CCNC2CN1Cc1cccc2ccccc12 (stereo not shown) [Compound 9b],–,–,–,–,Neither 100 μM of 9b nor 9b-CONH2 exhibited a growth inhibitory effect,–,–,"inhibitory effect on Wnt/β-catenin signaling in mesenchymal stem cells (Wnt/β-catenin signaling [5]; E7-TCF4 cells, day 8 after compound addition, compared with control 0.1% DMSO): all the compounds except for IC-2-Ar-OMe, 9b, and 7c-NT exhibited a significant inhibitory effect"
